Measured values published in US20230166255A1, “Methods And Devices For Detection Of Anticoagulants In Plasma And Whole Blood” (Massachusetts Institute of Technology, priority 2017, published 2023).
Like-named read-outs stand apart in the source and are kept apart here.

How the values were obtained:
FXa = FXa (Homo sapiens, UniProt P00742); assay: Clotting curves: clot detection time versus FXa agonist gradient (FIGS. 7A-7C); assay type: biochemical
Method: (§1) Clot detection agents can include fluorescent labeled fibrinogen, magnets, beads (may be fluorescent or colored) • b) Load into microfluidic device • i. See, e.g., FIGS. 1A-1D, 2A and 2B for examples of input loading configuration and order • c) Temperature control • i. Room temperature • ii. May increase up to 37° C.
(§2) The time it takes for each of the combinations to form a clot is then plotted. […] Concentration of the agonist (FXa for FIGS. 7A-7C, and FIIa for FIG. 7D) is plotted on the X-axis for each of the figures.

FIIa = FIIa (Homo sapiens, UniProt P00734)
Method: as §1, §2

Factor Xa = Factor Xa (Homo sapiens, UniProt P00742); assay: Clot detection in whole blood in parallel microfluidic channel device pre-coated with Factor Xa; assay type: biochemical; details: whole blood with unfractionated heparin, 10 minutes
Sequence of Factor Xa (P00742 235-488 limits assumed): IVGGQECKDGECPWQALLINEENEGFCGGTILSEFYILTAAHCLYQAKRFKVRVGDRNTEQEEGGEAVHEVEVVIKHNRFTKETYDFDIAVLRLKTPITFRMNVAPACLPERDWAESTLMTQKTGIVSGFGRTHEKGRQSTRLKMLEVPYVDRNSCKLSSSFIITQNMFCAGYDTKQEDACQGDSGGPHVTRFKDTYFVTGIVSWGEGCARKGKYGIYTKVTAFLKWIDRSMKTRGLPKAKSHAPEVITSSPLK
Sequence of Factor Xa (P00742 41-179 partner limits assumed): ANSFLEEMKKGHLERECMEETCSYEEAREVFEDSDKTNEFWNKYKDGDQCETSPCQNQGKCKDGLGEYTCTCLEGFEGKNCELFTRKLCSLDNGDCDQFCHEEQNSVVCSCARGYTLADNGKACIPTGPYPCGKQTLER
Method: FIGS. 4A and 4B are fluorescent images illustrating clot detection using whole blood in a parallel microfluidic channel device 410 according to an example embodiment. Microfluidic channels 420 were pre-coated with agonist, Factor Xa, at various concentrations (7.5 ng/mL, 75 ng/mL, 750 ng/mL) or with buffer alone (negative control). The fluorescent images are taken at one time point (10 minutes). Microfluidic channels were washed with buffer prior to use to leave only bound FXa within the microfluidic channel. Fresh whole blood was placed into each input port and the blood was drawn in through capillary action. The blood was left to flow for 10 minutes and then the channel was gently washed with buffer. Depicted is a brightfield image of two samples evaluated. […] Unfractionated heparin inhibits Factors IIa and Xa in an antithrombin III-dependent fashion, which is why the addition of these factors at appropriate concentrations can help recover the clotting capability of the sample.

Sequence of FXa (P00742 235-488 limits assumed): as the sequence (P00742 235-488 limits assumed) above
Sequence of FXa (P00742 41-179 partner limits assumed): as the sequence (P00742 41-179 partner limits assumed) above

O=C(NC[C@H]1CN(c2ccc(N3CCOCC3=O)cc2)C(=O)O1)c1ccc(Cl)s1 [Rivaroxaban]
clot formation time (FXa; 250 ng/mL Rivaroxaban, agonist (FXa) concentration down to 375 ng/mL): significantly longer than the negative control but lower than 500 ng/mL | clot formation detected (time) (FXa; 500 ng/mL Rivaroxaban, agonist (FXa) down to 750 ng/mL): < 2.5 min

Dabigatran
clot formation detected (time) (FIIa; 250 ng/mL Dabigatran, agonist (FIIa) concentration down to 710 ng/mL): < 2.5 min | clot formation detected (time) (FIIa; 500 ng/mL Dabigatran, agonist (FIIa) down to 710 ng/mL): < 2.5 min | clot formation detected (time) (FIIa; < 25 ng/mL Dabigatran, agonist (FIIa) concentration down to 71 ng/mL): < 2.5 min

unfractionated heparin
clot formation (Factor Xa; channels coated with 7.5, 75, 750 ng/mL FXa): gradient of clot formation dependent on the concentration of FXa in the channel | clot formation (Factor Xa; negative control channel (buffer alone, no FXa)): minimal clot formation
